ChEMBL document CHEMBL3714741, “Compounds and compositions as ITPKB inhibitors” (2011)
Activity calls are given as the source filed them. How the calls were made is not given here.

Each compound was assayed against T1, Inositol-trisphosphate 3-kinase B (Homo sapiens) (UniProt P27987) (assay: Inhibition of ITPKb in human Jurkat cells assessed as reduction in conversion of IP3 to IP4 using [3H]-myo-inositol incubated for 5 mins by beta-RAM radio-HPLC method).
T1 sequence (whole entry): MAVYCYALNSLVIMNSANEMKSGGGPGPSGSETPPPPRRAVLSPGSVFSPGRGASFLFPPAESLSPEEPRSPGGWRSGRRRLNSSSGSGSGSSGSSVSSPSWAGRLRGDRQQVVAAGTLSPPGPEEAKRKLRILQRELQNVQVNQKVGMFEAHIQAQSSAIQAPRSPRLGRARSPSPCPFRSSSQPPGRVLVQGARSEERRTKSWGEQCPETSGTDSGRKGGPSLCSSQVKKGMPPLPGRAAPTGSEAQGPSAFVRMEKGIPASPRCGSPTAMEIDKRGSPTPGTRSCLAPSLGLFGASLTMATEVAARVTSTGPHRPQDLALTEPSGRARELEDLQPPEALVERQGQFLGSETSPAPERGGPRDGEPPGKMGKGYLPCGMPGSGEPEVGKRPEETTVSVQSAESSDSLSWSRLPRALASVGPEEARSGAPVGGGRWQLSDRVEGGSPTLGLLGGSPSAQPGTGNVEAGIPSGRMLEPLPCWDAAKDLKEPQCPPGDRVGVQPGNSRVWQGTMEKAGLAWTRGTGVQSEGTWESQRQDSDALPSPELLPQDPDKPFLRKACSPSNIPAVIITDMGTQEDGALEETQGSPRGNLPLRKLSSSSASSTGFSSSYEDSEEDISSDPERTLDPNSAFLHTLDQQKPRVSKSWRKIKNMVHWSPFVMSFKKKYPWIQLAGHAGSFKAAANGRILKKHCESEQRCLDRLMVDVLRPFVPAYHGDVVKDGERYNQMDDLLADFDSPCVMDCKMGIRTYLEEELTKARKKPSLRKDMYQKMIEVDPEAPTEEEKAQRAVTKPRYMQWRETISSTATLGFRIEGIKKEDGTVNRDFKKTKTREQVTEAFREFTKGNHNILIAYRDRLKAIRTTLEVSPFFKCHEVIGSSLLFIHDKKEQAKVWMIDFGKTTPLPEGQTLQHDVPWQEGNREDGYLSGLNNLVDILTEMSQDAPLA
Type: cell-based
For `C[C@@H]1CN(Cc2c[nH]nc2-c2ccc(C(N)=O)[nH]2)CCN1c1ccc(C(F)(F)F)cn1`, the inhibition was “Active”.
In the case of `C[C@@H]1CN(Cc2c[nH]nc2C2CCNCC2)CCN1c1ccc(C(F)(F)F)cn1`, the inhibition is reported as “Active”.
With `C[C@@H]1CN(Cc2c[nH]nc2-c2ccc(C#N)c(=O)[nH]2)CCN1c1ccc(C(F)(F)F)cn1` the inhibition was “Active”.
In the case of `C[C@@H]1CN(Cc2c[nH]nc2-c2c[nH]c3ncccc23)CCN1c1ccc(C(F)(F)F)cn1`, the inhibition is reported as “Active”.
With `C[C@@H]1CN(Cc2c[nH]nc2C(=O)N2CCC(O)C2)CCN1c1ccc(C(F)(F)F)cn1` (some centres undefined) the inhibition was “Active”.
For `C[C@@H]1CN(Cc2c[nH]nc2-c2nc(C(F)(F)F)c[nH]2)CCN1c1ccc(C(F)(F)F)cn1`, the inhibition was “Active”.
With `CNC(=O)c1c[nH]c(-c2n[nH]cc2CN2CCN(c3ccc(C(F)(F)F)cn3)[C@H](C)C2)c1` the inhibition was “Active”.
In the case of `CC(O)CNC(=O)c1c[nH]c(-c2n[nH]cc2CN2CCN(c3ccc(C(F)(F)F)cn3)[C@H](C)C2)c1` (some centres undefined), the inhibition is reported as “Active”.
For `C[C@@H]1CN(Cc2c[nH]nc2C(=O)Nc2ccncc2)CCN1c1ccc(C(F)(F)F)cn1`, the inhibition was “Active”.
With `C[C@@H]1CN(Cc2c[nH]nc2-c2ccnc3[nH]ccc23)CCN1c1ccc(C(F)(F)F)cn1` the inhibition was “Active”.
`C[C@@H]1CN(Cc2c[nH]nc2-c2cc(C#N)c[nH]2)CCN1c1ccc(C(F)(F)F)cn1` was tested, and the inhibition was “Active”.
With `C[C@@H]1CN(Cc2c[nH]nc2-c2cc(C(=O)NCCO)c[nH]2)CCN1c1ccc(C(F)(F)F)cn1` the inhibition was “Active”.
With `C[C@@H]1CN(Cc2c[nH]nc2-c2ccc(C#N)[nH]2)CCN1c1ccc(C(F)(F)F)cn1` the inhibition was “Active”.
`C[C@@H]1CN(Cc2c[nH]nc2-c2ccc(C(N)=O)o2)CCN1c1ccc(C(F)(F)F)cn1` was tested, and the inhibition was “Active”.
`C[C@@H]1CN(Cc2c[nH]nc2-c2cc(C(N)=O)co2)CCN1c1ccc(C(F)(F)F)cn1` was tested, and the inhibition was “Active”.
For `C[C@@H]1CN(Cc2c[nH]nc2/C=C2\NC(=S)NC2=O)CCN1c1ccc(C(F)(F)F)cn1`, the inhibition was “Active”.
In the case of `C[C@@H]1CN(Cc2c[nH]nc2-c2nc3c([nH]2)CCCC3)CCN1c1ccc(C(F)(F)F)cn1`, the inhibition is reported as “Active”.
For `C[C@@H]1CN(Cc2c[nH]nc2C(=O)N2CC(O)C2)CCN1c1ccc(C(F)(F)F)cn1`, the inhibition was “Active”.
With `C[C@@H]1CN(Cc2c[nH]nc2-c2cc(C(=O)N[C@@H](C)CO)c[nH]2)CCN1c1ccc(C(F)(F)F)cn1` the inhibition was “Active”.
`C[C@@H]1CN(Cc2c[nH]nc2-c2cc(C(N)=O)c[nH]2)CCN1c1ccc(C(F)(F)F)cn1` was tested, and the inhibition was “Active”.
`C[C@@H]1CN(Cc2c[nH]nc2-c2cc(C(=O)N(C)C)c[nH]2)CCN1c1ccc(C(F)(F)F)cn1` was tested, and the inhibition was “Active”.
`C[C@@H]1CN(Cc2c[nH]nc2-c2cc(C(=O)O)co2)CCN1c1ccc(C(F)(F)F)cn1` was tested, and the inhibition was “Active”.
`C[C@@H]1CN(Cc2c[nH]nc2C(=O)Nc2nc[nH]c2C#N)CCN1c1ccc(C(F)(F)F)cn1` was tested, and the inhibition was “Active”.
With `Cc1cc(NC(=O)c2n[nH]cc2CN2CCN(c3ccc(C(F)(F)F)cn3)[C@H](C)C2)n(CCN(C)C)n1` the inhibition was “Active”.
`C[C@@H]1CN(Cc2c[nH]nc2C(=O)Nc2n[nH]cc2C#N)CCN1c1ccc(C(F)(F)F)cn1` was tested, and the inhibition was “Active”.
For `N#Cc1c[nH]c(-c2n[nH]cc2CN2CCN(c3ccc(C(F)(F)F)cn3)[C@H](C(F)(F)F)C2)c1`, the inhibition was “Active”.
For `C[C@@H]1CN(Cc2c[nH]nc2-c2nc3ccccc3[nH]2)CCN1c1ccc(C(F)(F)F)cn1`, the inhibition was “Active”.
`C[C@@H]1CN(Cc2c[nH]nc2-c2nc3cnccc3[nH]2)CCN1c1ccc(C(F)(F)F)cn1` was tested, and the inhibition was “Active”.
`C[C@@H]1CN(Cc2c[nH]nc2C(=O)Nc2cc(-c3ccco3)n[nH]2)CCN1c1ccc(C(F)(F)F)cn1` was tested, and the inhibition was “Active”.
With `C[C@@H]1CN(Cc2c[nH]nc2-c2c[nH]c(C#N)c2)CCN1c1ccc(C(F)(F)F)cn1` the inhibition was “Active”.
In the case of `C[C@@H]1CN(Cc2c[nH]nc2-c2nc(C(N)=O)c[nH]2)CCN1c1ccc(C(F)(F)F)cn1`, the inhibition is reported as “Active”.
In the case of `C[C@@H]1CN(Cc2c[nH]nc2/C=C2\NC(=O)NC2=O)CCN1c1ccc(C(F)(F)F)cn1`, the inhibition is reported as “Active”.
`Cc1cnc(-c2n[nH]cc2CN2CCN(c3ccc(C(F)(F)F)cn3)[C@H](C)C2)[nH]1` was tested, and the inhibition was “Active”.
`C[C@@H]1CN(Cc2c[nH]nc2-c2c[nH]c(C(N)=O)c2)CCN1c1ccc(C(F)(F)F)cn1` was tested, and the inhibition was “Active”.
For `Cc1nc(-c2n[nH]cc2CN2CCN(c3ccc(C(F)(F)F)cn3)[C@H](C)C2)[nH]c1C`, the inhibition was “Active”.
With `C[C@@H]1CN(Cc2c[nH]nc2/C=C2\NC(=N)NC2=O)CCN1c1ccc(C(F)(F)F)cn1` the inhibition was “Active”.
With `C[C@@H]1CN(Cc2c[nH]nc2C2=CCN(C(=O)CCO)CC2)CCN1c1ccc(C(F)(F)F)cn1` the inhibition was “Active”.
In the case of `COC(=O)c1ccc(-c2n[nH]cc2CN2CCN(c3ccc(C(F)(F)F)cn3)[C@H](C)C2)o1`, the inhibition is reported as “Active”.
With `C[C@@H]1CN(Cc2c[nH]nc2-c2cc3ccccc3[nH]2)CCN1c1ccc(C(F)(F)F)cn1` the inhibition was “Active”.
For `C[C@@H]1CN(Cc2c[nH]nc2C2=CCN(C=O)CC2)CCN1c1ccc(C(F)(F)F)cn1`, the inhibition was “Active”.
In the case of `C[C@@H]1CN(Cc2c[nH]nc2-c2ccc(C(=O)O)o2)CCN1c1ccc(C(F)(F)F)cn1`, the inhibition is reported as “Active”.
With `CC(=O)N1CC=C(c2n[nH]cc2CN2CCN(c3ccc(C(F)(F)F)cn3)[C@H](C)C2)CC1` the inhibition was “Active”.
For `C[C@@H]1CN(Cc2c[nH]nc2-c2nc(C(=N)N)c[nH]2)CCN1c1ccc(C(F)(F)F)cn1`, the inhibition was “Active”.
For `C[C@@H]1CN(Cc2c[nH]nc2C(=O)N2CCC(O)CC2)CCN1c1ccc(C(F)(F)F)cn1`, the inhibition was “Active”.
In the case of `C[C@@H]1CN(Cc2c[nH]nc2-c2ccc3cnccc3c2)CCN1c1ccc(C(F)(F)F)cn1`, the inhibition is reported as “Active”.
With `C[C@@H]1CN(Cc2c[nH]nc2-c2nc3cc(C#N)ccc3[nH]2)CCN1c1ccc(C(F)(F)F)cn1` the inhibition was “Active”.
In the case of `C[C@@H]1CN(Cc2c[nH]nc2C2=CCNCC2)CCN1c1ccc(C(F)(F)F)cn1`, the inhibition is reported as “Active”.
`C[C@@H]1CN(Cc2c[nH]nc2C2CCN(C=O)CC2)CCN1c1ccc(C(F)(F)F)cn1` was tested, and the inhibition was “Active”.
For `C[C@@H]1CN(Cc2c[nH]nc2-c2nc(C#N)c[nH]2)CCN1c1ccc(C(F)(F)F)cn1`, the inhibition was “Active”.
`C[C@@H]1CN(Cc2c[nH]nc2-c2nc(-c3ccccc3)c[nH]2)CCN1c1ccc(C(F)(F)F)cn1` was tested, and the inhibition was “Active”.
In the case of `NC(=O)c1c[nH]c(-c2n[nH]cc2CN2CCN(c3ccc(C(F)(F)F)cn3)[C@H](C(F)(F)F)C2)c1`, the inhibition is reported as “Active”.
With `FC(F)(F)c1ccc(N2CCN(Cc3c[nH]nc3-c3cccs3)CC2)nc1` the inhibition was “Active”.
In the case of `C[C@@H]1CN(Cc2c[nH]nc2-c2nc3cc(F)ccc3[nH]2)CCN1c1ccc(C(F)(F)F)cn1`, the inhibition is reported as “Active”.

Each compound was assayed against T2, Kinase (Mus musculus, UniProt B2RXC2) (assay: Inhibition of mouse ITPKb (640 to 942 residues) expressed in Escherichia coli HK100 assessed as reduction in phosphorylation of IP3 to IP4 incubated for 60 mins by kinase-Glo ATP depletion assay).
T2 sequence (B2RXC2 whole entry): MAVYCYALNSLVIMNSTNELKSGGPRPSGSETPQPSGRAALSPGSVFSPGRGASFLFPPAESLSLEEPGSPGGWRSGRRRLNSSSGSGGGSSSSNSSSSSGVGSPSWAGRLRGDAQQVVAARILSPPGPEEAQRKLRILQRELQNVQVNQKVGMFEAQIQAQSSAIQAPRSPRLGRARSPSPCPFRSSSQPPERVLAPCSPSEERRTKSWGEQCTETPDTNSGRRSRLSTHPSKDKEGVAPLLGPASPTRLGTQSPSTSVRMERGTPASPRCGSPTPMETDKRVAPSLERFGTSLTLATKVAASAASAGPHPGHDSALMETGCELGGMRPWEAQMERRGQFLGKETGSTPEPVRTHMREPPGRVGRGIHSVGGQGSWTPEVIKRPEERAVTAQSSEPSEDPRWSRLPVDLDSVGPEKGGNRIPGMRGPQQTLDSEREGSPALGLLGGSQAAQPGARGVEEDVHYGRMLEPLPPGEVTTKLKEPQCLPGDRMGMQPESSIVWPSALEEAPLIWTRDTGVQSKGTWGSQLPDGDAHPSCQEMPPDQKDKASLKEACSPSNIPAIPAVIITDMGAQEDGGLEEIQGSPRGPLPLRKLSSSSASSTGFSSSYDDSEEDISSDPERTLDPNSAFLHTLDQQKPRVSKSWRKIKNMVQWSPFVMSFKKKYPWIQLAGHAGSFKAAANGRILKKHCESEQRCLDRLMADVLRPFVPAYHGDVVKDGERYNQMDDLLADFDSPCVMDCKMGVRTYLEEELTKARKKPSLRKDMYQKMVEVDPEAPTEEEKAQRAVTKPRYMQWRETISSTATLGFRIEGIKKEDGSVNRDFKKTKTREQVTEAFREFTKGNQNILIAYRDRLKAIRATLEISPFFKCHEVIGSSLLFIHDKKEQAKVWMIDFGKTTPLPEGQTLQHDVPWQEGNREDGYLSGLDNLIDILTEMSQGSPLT
In the case of `Cc1cnc(-c2n[nH]cc2CN2CCN(c3ccc(C(F)(F)F)cn3)[C@H](C)C2)[nH]1`, the IC50 is reported as 10 µM.
